Where two headings read alike, the source gives them in different places.
What was measured:
Aqueous solubility = settings: for Solub.: aqueous solubility
[1] = for PAMPA permeability: pH 7.4
[2] = Microsomal metabolic stability, rat liver microsomes (RLM); settings: rat liver microsomes

Row | Structure (SMILES) | Solub. (Aqueous solubility) [µg/mL] | PAMPA [1] [×10⁻⁶ cm/s] | t1/2 (min, RLM) [2] | solubility (Aqueous solubility) | PAMPA permeability [1] | PAMPA (PAMPA permeability) [×10⁻⁶ cm/s]
1 | Nc1nnc2n(CCc3ccccc3)c(=O)c3cc(F)ccc3n12 [compound 16] | 2.2 | 885 | 29.4 min |  |  | 
2 | O=c1c2cc(F)ccc2n2c(=S)[nH]nc2n1Cc1ccccc1 [compound 52] | 8.3 | 841 | >30 min |  |  | 
3 | CC(C)(C)OC(=O)N1CC(CCn2c(=O)c3cc(F)ccc3n3c(=S)[nH]nc23)C1 [compound 86] | 15 | 229 |  |  |  | 
4 | N#Cc1ccccc1CC(=O)NCCCn1c(=O)c2cc(F)ccc2n2c(=S)[nH]nc12 [compound 133, 2-(2-cyanophenyl)-N-(3-(7-fluoro-5-oxo-1-thioxo-1,2-dihydro-[1,2,4]triazolo[4,3-a]quinazolin-4(5H)-yl)propyl)acetamide] | 20.9 |  | >30 min |  |  | 156
5 | CC(C)(C)OC(=O)NC1CCC(C(=O)NCCCn2c(=O)c3cc(F)ccc3n3c(=S)[nH]nc23)CC1 (stereo not drawn) [compound 110] | >77 | 330 | 24.8 min |  |  | 
6 | O=C(Cc1ccccc1C(F)(F)F)NCCCn1c(=O)c2cc(F)ccc2n2c(=S)[nH]nc12 [compound 131, N-(3-(7-fluoro-5-oxo-1-thioxo-1,2-dihydro-[1,2,4]triazolo[4,3-a]quinazolin-4(5H)-yl)propyl)-2-(2-(trifluoromethyl)phenyl)acetamide] | 40.3 |  | 3.7 min |  |  | 825
7 | O=c1c2cc(F)ccc2n2c(=S)[nH]nc2n1CCc1ccc(Cl)cc1 [compound 82] | 1.2 | <1 | >30 min |  |  | 
8 | O=C(Cc1cccc(Cl)c1)NCCCn1c(=O)c2cc(F)ccc2n2c(=S)[nH]nc12 [compound 124, 2-(3-chlorophenyl)-N-(3-(7-fluoro-5-oxo-1-thioxo-1,2-dihydro-[1,2,4]triazolo[4,3-a]quinazolin-4(5H)-yl)propyl)acetamide] | >66 |  | 8.4 min |  |  | 861
9 | O=c1c2cc(F)ccc2n2c(=S)[nH]nc2n1CCC(F)(F)F [compound 65] | 17.3 | 117 | >30 min | moderate to good solubility | moderate to good permeability | 
10 | O=C(Cc1ccccn1)NCCCn1c(=O)c2cc(F)ccc2n2c(=S)[nH]nc12 [compound 136, N-(3-(7-Fluoro-5-oxo-1-thioxo-1,2-dihydro-[1,2,4]triazolo[4,3-a]quinazolin-4(5H)-yl)propyl)-2-(pyridine-2-yl)acetamide] | 41.4 |  | >30 min |  |  | 68.0
11 | O=c1c2cc(F)ccc2n2c(=S)[nH]nc2n1CCN1CCC(F)(F)CC1 [compound 89] | 20.2 | 234 | >30 min |  |  | 
12 | O=C(Cc1ccccc1)NCCCn1c(=O)c2cc(F)ccc2n2c(=S)[nH]nc12 [compound 120, N-(3-(7-fluoro-5-oxo-1-thioxo-1,2-dihydro-[1,2,4]triazolo[4,3-a]quinazolin-4(5H)-yl)propyl)-2-phenylacetamide] | 31.7 |  | 18.7 min |  |  | 248
13 | O=c1c2cc(F)ccc2n2cnnc2n1CCc1ccccc1 [compound 18] | 14.8 | 924 | 11.8 min |  |  | 
14 | O=C(Cc1cccc(F)c1)NCCCn1c(=O)c2cc(F)ccc2n2c(=S)[nH]nc12 [compound 122, N-(3-(7-fluoro-5-oxo-1-thioxo-1,2-dihydro-[1,2,4]triazolo[4,3-a]quinazolin-4(5H)-yl)propyl)-2-(3-fluorophenyl)acetamide] | >63 |  | 26.5 min |  |  | 364
15 | O=c1c2cc(Cl)ccc2n2c(=S)[nH]nc2n1CCC(F)(F)F [compound 55] | 5.1 | 257 | >30 min |  |  | 
16 | O=c1c2cc(F)ccc2n2c(=S)[nH]nc2n1CCN1CCOCC1 [compound 90] | >52 | 67.0 | >30 min |  |  | 
17 | CNC(=S)N1CN(CCc2ccccc2)C(=O)c2cc(F)ccc21 [compound 62] | 4.5 | 161 | 2.2 min |  |  | 
18 | O=c1c2cc(F)ccc2n2c(=S)[nH]nc2n1CCc1cccnc1 [Cmpd 84] |  | <1 |  |  |  | 
19 | O=c1c2cc(F)ccc2n2c(=S)[nH]nc2n1CCN1CCCCC1 [compound 88] | 2.4 | 358 | >30 min |  |  | 
20 | O=c1c2cc(F)ccc2n2c(=S)[nH]nc2n1CCC1CCC(F)(F)CC1 [compound 93] | <1 | 201 | >30 min |  |  | 
21 | CCn1c(=O)c2ccccc2n2c(=S)[nH]nc12 [compound 20] | >36 | 427 | >30 min |  |  | 
22 | O=C(Cc1cccc(C(F)(F)F)c1)NCCCn1c(=O)c2cc(F)ccc2n2c(=S)[nH]nc12 [compound 132, N-(3-(7-fluoro-5-oxo-1-thioxo-1,2-dihydro-[1,2,4]triazolo[4,3-a]quinazolin-4(5H)-yl)propyl)-2-(3-(trifluoromethyl)phenyl)acetamide] | 26.8 |  | 17.3 min |  |  | 
23 | O=c1c2cc(F)ccc2n2c(=S)[nH]nc2n1CCc1ccccn1 [compound 83] | 13.0 | 355 | >30 min |  | moderate to good permeability | 
24 | CN(C)c1ccc2c(c1)c(=O)n(CCc1ccccc1)c1n[nH]c(=S)n21 [Cmpd 45] |  | 356 |  |  |  | 
25 | O=c1c2ccccc2n2c(=S)[nH]nc2n1CCC(F)(F)F [compound 27] | 23.3 | 82 | >30, min |  |  | 
26 | O=c1c2cc(F)ccc2n2c(=S)[nH]nc2n1CCc1ccccc1Cl [compound 81] | 3.0 |  | 22.8 min |  |  | 
27 | O=c1c2cc(F)ccc2n2c(=S)[nH]nc2n1CCCc1ccccc1 [compound 53] | <1 |  | 8.8 min |  |  | 
28 | O=C(NCCCn1c(=O)c2cc(F)ccc2n2c(=S)[nH]nc12)c1ccc(Cn2ccnc2)cc1 [compound 119, 4-((1H-imidazol-1-yl)methyl)-N-(3-(7-fluoro-5-oxo-1-thioxo-1,2-dihydro-[1,2,4]triazolo[4,3-a]quinazolin-4(5H)-yl)propyl)benzamide] | 13.7 |  | >30 min |  |  | 
29 | CC(CN(C)C)n1c(=O)c2cc(F)ccc2n2c(=S)[nH]nc12 (stereo not drawn) [compound 71] | >47 | 186 | >30 min |  |  | 

Second part, led by results:

Row | Solub. (Aqueous solubility) [µg/mL] | PAMPA [1] [×10⁻⁶ cm/s] | t1/2 (min, RLM) [2] | solubility (Aqueous solubility) | PAMPA permeability [1] | Structure (SMILES) | PAMPA (PAMPA permeability) [×10⁻⁶ cm/s]
30 | <1 | 8.0 |  |  |  | O=C(NCCCn1c(=O)c2cc(F)ccc2n2c(=S)[nH]nc12)C1CCOCC1 [compound 115] | 
31 | >58 | <1 | >30 min |  |  | O=C(O)CCC(=O)NCCCn1c(=O)c2cc(F)ccc2n2c(=S)[nH]nc12 [compound 106] | 
32 | >43 | 222 | >30 min |  |  | O=c1c2cc(F)ccc2n2c(=S)[nH]nc2n1CCCO [compound 66] | 
33 | 42.4 | 3.0 | >30 min |  |  | NS(=O)(=O)CCCC(=O)NCCCn1c(=O)c2cc(F)ccc2n2c(=S)[nH]nc12 [compound 107] | 
34 | >45 | 177 | >30 min |  |  | CN(C)CCn1c(=O)c2cc(F)ccc2n2c(=S)[nH]nc12 [compound 70] | 
35 | >58 | 155 | >30 min |  |  | O=C(NCCCn1c(=O)c2cc(F)ccc2n2c(=S)[nH]nc12)C1CCCC1 [compound 108] | 
36 |  | 405 |  |  |  | CC(C)(C)OC(=O)NCCCCCC(=O)NCCCn1c(=O)c2cc(F)ccc2n2c(=S)[nH]nc12 [Cmpd 101] | 
37 | 37.5 |  | >30 min |  |  | O=C(CC1CCNCC1)NCCCn1c(=O)c2cc(F)ccc2n2c(=S)[nH]nc12 [compound 116] | 
38 | >62 | <1 | >30 min |  |  | O=C(CN1CCOCC1)NCCCn1c(=O)c2cc(F)ccc2n2c(=S)[nH]nc12 [compound 118] | 
39 | 36.1 |  | >30 min |  |  | NCCOCCOCCOCCC(=O)NCCCn1c(=O)c2cc(F)ccc2n2c(=S)[nH]nc12 [compound 98] | 
40 |  | 744 |  |  |  | CC(C)(C)OC(=O)CC[C@H](NC(=O)OC(C)(C)C)C(=O)NCCCn1c(=O)c2cc(F)ccc2n2c(=S)[nH]nc12 [Cmpd 103] | 
41 | 31.8 |  | >30 min |  |  | NCCCCCC(=O)NCCCn1c(=O)c2cc(F)ccc2n2c(=S)[nH]nc12 [compound 100] | 
42 | 38.8 |  | >30 min |  |  | NC1CCC(C(=O)NCCCn2c(=O)c3cc(F)ccc3n3c(=S)[nH]nc23)CC1 (stereo not drawn) [compound 111] | 
43 | 21.9 | 267 | >30 min |  |  | O=C(NCCCn1c(=O)c2cc(F)ccc2n2c(=S)[nH]nc12)c1ccccc1 [compound 74] | 
44 | >64 | <1 | >30 min |  |  | CN1CCN(CC(=O)NCCCn2c(=O)c3cc(F)ccc3n3c(=S)[nH]nc23)CC1 [compound 117] | 

— patent US20230365568A1, “PLK1 POLO BOX DOMAIN INHIBITORS AND METHOD OF TREATING CANCER” (The United States of America,as represented by the …, priority 2020, published 2023)
